Data: patent publication US20260355196A1, “INHIBITORS AND DEGRADERS OF PIP4K PROTEIN” (Larkspur Biosciences, Inc., priority 2023, published 2026)

target: T1, PIP4K2C (Homo sapiens, UniProt Q8TBX8); assay: HiBiT PIP4K2C degradation assay in MOLT-4 cells (endogenous PIP4K2C C-terminally tagged with HiBiT); assay type: cell-based; parameters: untagged in primary human PBMCs and monocyte-derived dendritic cells; details: 6 hours of incubation time, rather than 24 hours; MOLT-4, top concentration 10 micromolar; read-out: HiBIT-degradation MOLT4 PIP4k2C DC50 (6 hours, marked *)
T1 sequence (Q8TBX8 1-421): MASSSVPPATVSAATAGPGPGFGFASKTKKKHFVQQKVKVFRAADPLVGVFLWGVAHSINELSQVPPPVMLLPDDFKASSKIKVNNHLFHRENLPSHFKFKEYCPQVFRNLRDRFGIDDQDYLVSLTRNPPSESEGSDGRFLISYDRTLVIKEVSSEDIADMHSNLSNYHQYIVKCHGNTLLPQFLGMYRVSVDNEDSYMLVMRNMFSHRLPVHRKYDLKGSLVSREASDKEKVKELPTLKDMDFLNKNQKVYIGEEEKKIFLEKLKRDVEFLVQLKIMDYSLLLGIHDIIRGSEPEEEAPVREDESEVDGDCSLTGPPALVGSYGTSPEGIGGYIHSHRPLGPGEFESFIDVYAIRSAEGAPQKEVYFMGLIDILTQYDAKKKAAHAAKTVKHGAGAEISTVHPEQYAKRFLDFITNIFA
In short: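 Luminescent HiBiT lytic readout of residual PIP4K2C-HiBiT (CRISPR knock-in, MOLT-4, phenol red-free RPMI-1640 + 10% FBS). Cells exposed 6 or 24 h at 37 C to compound, top 10 micromolar, 3-fold, 10 points, duplicate. Hill fit (Levenberg-Marquardt) gives DC50.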

Question: How did the DC50 turn out when `O=C1CCC(Nc2ccc(C3CCN([C@H]4CC[C@H](C(=O)N[C@H]5CC[C@H](Nc6ncc(F)c(-c7cccc(C8CC8)c7)n6)CC5)CC4)CC3)c(F)c2)C(=O)N1` (stereo partly drawn) [Compound 558, trans-(1r,4R)—N-((1r,4R)-4-((4-(3-cyclopropylphenyl)-5-fluoropyrimidin-2-yl)amino)cyclohexyl)-4-(4-(4-((2,6-dioxopiperidin-3-yl)amino)-2-fluorophenyl)piperidin-1-yl)cyclohexane-1-carboxamide] was run?
Answer: Its DC50 is less than 500 nM.

Question: `O=C1CCC(Nc2ccc(N3CCC(N4CCC(NC(=O)[C@H]5CC[C@H](Nc6ncc(F)c(-c7cccc(-c8ccc[nH]c8=O)c7)n6)CC5)CC4)C(F)(F)C3)c(F)c2)C(=O)N1` (stereo partly drawn) [Compound 451, trans-N-(1′-(4-((2,6-dioxopiperidin-3-yl)amino)-2-fluorophenyl)-3′,3′-difluoro-[1,4′-bipiperidin]-4-yl)-4-((5-fluoro-4-(3-(2-oxo-1,2-dihydropyridin-3-yl)phenyl)pyrimidin-2-yl)amino)cyclohexane-1-carboxamide] was tested. Which DC50 did it give?
Answer: The DC50 was less than 500 nM.

Question: `O=C1CCC(Nc2ccc(C3CCN([C@H]4CC[C@H](NC(=O)[C@H]5CC[C@H](Nc6ncc(F)c(-c7ccnc(N8CCCCC8=O)c7)n6)CC5)CC4)CC3)c(F)c2)C(=O)N1` (stereo partly drawn) [Compound 549, trans-N-(trans-4-(4-(4-((2,6-dioxopiperidin-3-yl)amino)-2-fluorophenyl)piperidin-1-yl)cyclohexyl)-4-((5-fluoro-4-(2-(2-oxopiperidin-1-yl)pyridin-4-yl)pyrimidin-2-yl)amino)cyclohexane-1-carboxamide] was tested. Which DC50 did it give?
Answer: Its DC50 is less than 500 nM.

Question: How did the DC50 turn out when `O=C1CC[C@@H](Nc2ccc(C3CCN([C@H]4CC[C@H](NC(=O)[C@H]5CC[C@H](Nc6ncc(F)c(-c7cccc(-c8ccc[nH]c8=O)c7)n6)CC5)CC4)CC3)c(F)c2)C(=O)N1` (single isomer, unassigned) [Compound 419] was run?
Answer: The DC50 was less than 500 nM.

Question: How did the DC50 turn out when `O=C1CCC(Nc2ccc(N3CCN(CC4(O)CCN(C(=O)[C@H]5CC[C@H](Nc6ncc(F)c(-c7cccc(-c8ccccc8)c7)n6)CC5)CC4)CC3)c(F)c2)C(=O)N1` (stereo partly drawn) [Compound 463, trans-3-[3-fluoro-4-[4-[[1-[4-[[5-fluoro-4-(3-phenylphenyl)pyrimidin-2-yl]amino]cyclohexanecarbonyl]-4-hydroxy-4-piperidyl]methyl]piperazin-1-yl]anilino]piperidine-2,6-dione] was run?
Answer: Its DC50 is less than 500 nM.

Question: Which DC50 does the source give for `O=C1CCC(Nc2ccc(C3CCN([C@H]4CC[C@H](NC(=O)[C@H]5CC[C@H](Nc6ncc(F)c(-c7ccnc(N8CCCOC8=O)c7)n6)CC5)CC4)CC3)c(F)c2)C(=O)N1` (stereo partly drawn) [Compound 550, trans-N-((trans)-4-(4-(4-((2,6-dioxopiperidin-3-yl)amino)-2-fluorophenyl)piperidin-1-yl)cyclohexyl)-4-((5-fluoro-4-(2-(2-oxo-1,3-oxazinan-3-yl)pyridin-4-yl)pyrimidin-2-yl)amino)cyclohexane-1-carboxamide] here?
Answer: The DC50 was less than 500 nM.

Question: For `Cn1nc(C2CCC(=O)NC2=O)c2ccc(N3CCN(CCN4CCC(C(=O)N[C@H]5CC[C@H](Nc6ncc(F)c(-c7cccc(-n8ccccc8=O)c7)n6)CC5)CC4)CC3)cc21` (stereo partly drawn) [Compound 506, trans-1-(2-(4-(3-(2,6-dioxopiperidin-3-yl)-1-methyl-1H-indazol-6-yl)piperazin-1-yl)ethyl)-N-((1r,4r)-4-((5-fluoro-4-(3-(2-oxopyridin-1(2H)-yl)phenyl)pyrimidin-2-yl)amino)cyclohexyl)piperidine-4-carboxamide], which DC50 is on record?
Answer: Its DC50 is less than 500 nM.

Question: How did the DC50 turn out when `O=C1CCC(Nc2ccc(N3CCC(N4CCC(NC(=O)[C@H]5CC[C@H](Nc6ncc(F)c(-c7cccc(N8CCOCC8=O)c7)n6)CC5)CC4)C(F)C3)c(F)c2)C(=O)N1` (stereo partly drawn) [Compound 476, trans-N-(1′-(4-((2,6-dioxopiperidin-3-yl)amino)-2-fluorophenyl)-3′-fluoro-[1,4′-bipiperidin]-4-yl)-4-((5-fluoro-4-(3-(3-oxomorpholino)phenyl)pyrimidin-2-yl)amino)cyclohexane-1-carboxamide] was run?
Answer: The DC50 was less than 500 nM.

Question: How did the DC50 turn out when `O=C1CCC(Nc2ccc(C3CCN(CC4CCC(C(=O)N5CCC(Nc6ncc(F)c(-c7cccc(N8CCCCC8)c7)n6)CC5)CC4)CC3)c(F)c2)C(=O)N1` (stereo not drawn) [Compound 682, trans-3-((3-fluoro-4-(1-((4-(4-((5-fluoro-4-(3-(piperidin-1-yl)phenyl)pyrimidin-2-yl)amino)piperidine-1-carbonyl)cyclohexyl)methyl)piperidin-4-yl)phenyl)amino)piperidine-2,6-dione] was run?
Answer: The DC50 was less than 500 nM.

Question: Which DC50 does the source give for `O=C1CCC(Nc2ccc(N3CCC(N4CCC(NC(=O)[C@H]5CC[C@H](Nc6ncc(F)c(-c7cccc(N8CCCCC8=O)c7)n6)CC5)CC4)C(F)C3)c(F)c2)C(=O)N1` (stereo partly drawn) [Compound 701, trans-N-(1′-(4-((2,6-dioxopiperidin-3-yl)amino)-2-fluorophenyl)-3′-fluoro-[1,4′-bipiperidin]-4-yl)-4-((5-fluoro-4-(3-(2-oxopiperidin-1-yl)phenyl)pyrimidin-2-yl)amino)cyclohexane-1-carboxamide] here?
Answer: Its DC50 is less than 500 nM.

Question: For `O=C1CCC(Nc2ccc(C3CCN(C[C@H]4CC[C@H](C(=O)N5CCC(Nc6ncc(F)c(-c7cccc(N8CCOCC8=O)c7)n6)CC5)CC4)CC3)c(F)c2)C(=O)N1` (stereo partly drawn) [Compound 683, 3-((3-fluoro-4-(1-(((trans)-4-(4-((5-fluoro-4-(3-(3-oxomorpholino)phenyl)pyrimidin-2-yl)amino)piperidine-1-carbonyl)cyclohexyl)methyl)piperidin-4-yl)phenyl)amino)piperidine-2,6-dione], which DC50 is on record?
Answer: The DC50 was greater than 5000 nM.

Question: `O=C1CCC(Nc2ccc(N3CCC(N4CCC(NC(=O)[C@H]5CC[C@H](Nc6ncc(F)c(-c7cccc(-n8ccccc8=O)c7)n6)CC5)CC4)C(F)C3)c(F)c2)C(=O)N1` (stereo partly drawn) [Compound 452, trans-N-(1′-(4-((2,6-dioxopiperidin-3-yl)amino)-2-fluorophenyl)-3′-fluoro-[1,4′-bipiperidin]-4-yl)-4-((5-fluoro-4-(3-(2-oxopyridin-1(2H)-yl)phenyl)pyrimidin-2-yl)amino)cyclohexane-1-carboxamide] was tested. Which DC50 did it give?
Answer: Its DC50 is less than 500 nM.

Question: How did the DC50 turn out when `O=C1CCC(Nc2ccc(C3CCN(C4CCN(C(=O)O[C@H]5CC[C@H](Nc6ncc(F)c(-c7cccc(-n8ccccc8=O)c7)n6)CC5)CC4F)CC3)c(F)c2)C(=O)N1` (stereo partly drawn) [Compound 695, trans-4-((5-fluoro-4-(3-(2-oxopyridin-1 (2H)-yl)phenyl)pyrimidin-2-yl)amino)cyclohexyl 4-(4-((2,6-dioxopiperidin-3-yl)amino)-2-fluorophenyl)-3′-fluoro-[1,4′-bipiperidine]-1′-carboxylate] was run?
Answer: The DC50 was less than 500 nM.

same assay, conditions: 24 hours incubation, MOLT-4, top concentration 10 micromolar; read-out: HiBIT-degradation MOLT4 PIP4k2C 24 hours DC50

Question: `O=C1CCC(Nc2ccc(C3CCN(CCC4(O)CCN(C(=O)[C@H]5CCC[C@@H](Nc6ncc(F)c(-c7cccc(-n8ccccc8=O)c7)n6)C5)CC4)CC3)c(F)c2)C(=O)N1` (relative stereo) [Compound 348, cis-3-((3-fluoro-4-(1-(2-(1-(3-((5-fluoro-4-(3-(2-oxopyridin-1(2H)-yl)phenyl)pyrimidin-2-yl)amino)cyclohexane-1-carbonyl)-4-hydroxypiperidin-4-yl)ethyl)piperidin-4-yl)phenyl)amino)piperidine-2,6-dione] was tested. Which DC50 did it give?
Answer: The DC50 was less than 500 nM.

Question: For `Cn1c(=O)n(C2CCC(=O)NC2=O)c2ccc(C3CCN(CCC4CCN(C(=O)[C@H]5CCC[C@@H](Nc6ncc(Cl)c(-c7cccc(-c8ccccc8)c7)n6)C5)CC4)CC3)cc21` (stereo partly drawn) [Compound 281, 3-(5-(1-(2-(1-((1S,3R)-3-((4-([1,1′-biphenyl]-3-yl)-5-chloropyrimidin-2-yl)amino)cyclohexane-1-carbonyl)piperidin-4-yl)ethyl)piperidin-4-yl)-3-methyl-2-oxo-2,3-dihydro-1H-benzo[d]imidazol-1-yl)piperidine-2,6-dione], which DC50 is on record?
Answer: The DC50 was less than 500 nM.

Question: For `O=C1CCC(Nc2ccc(C3CCN(CCN4CCN(C(=O)[C@H]5CCC[C@@H](Nc6ncc(Cl)c(-c7cccc(-c8ccccc8)c7)n6)C5)CC4)CC3)cc2)C(=O)N1` (relative stereo) [Compound 55, cis-3-((4-(1-(2-(4-(3-((4-([1,1′-biphenyl]-3-yl)-5-chloropyrimidin-2-yl)amino)cyclohexane-1-carbonyl)piperazin-1-yl)ethyl)piperidin-4-yl)phenyl)amino)piperidine-2,6-dione], which DC50 is on record?
Answer: The DC50 was 500 to 1000 nM.

Question: Which DC50 does the source give for `O=C1CCC(Nc2ccc(N3CCN(CC4CCN(C(=O)[C@H]5CC[C@H](Nc6ncc(F)c(-c7cccc(-c8ccc[nH]c8=O)c7)n6)CC5)CC4)CC3)c(F)c2)C(=O)N1` (stereo partly drawn) [Compound 376, trans-3-((3-fluoro-4-(4-((1-(4-((5-fluoro-4-(3-(2-oxo-1,2-dihydropyridin-3-yl)phenyl)pyrimidin-2-yl)amino)cyclohexane-1-carbonyl)piperidin-4-yl)methyl)piperazin-1-yl)phenyl)amino)piperidine-2,6-dione] here?
Answer: The DC50 was less than 500 nM.

Question: Which DC50 does the source give for `O=C1CCC(Nc2ccc(C3CCN(CC4CCN(CC(=O)N5CCC(Nc6ncc(F)c(-c7cccc(-c8ccc[nH]c8=O)c7)n6)CC5)CC4)CC3)c(F)c2)C(=O)N1` (stereo not drawn) [Compound 364, 3-((3-fluoro-4-(1-((1-(2-(4-((5-fluoro-4-(3-(2-oxo-1,2-dihydropyridin-3-yl)phenyl)pyrimidin-2-yl)amino)piperidin-1-yl)-2-oxoethyl)piperidin-4-yl)methyl)piperidin-4-yl)phenyl)amino)piperidine-2,6-dione] here?
Answer: Its DC50 is less than 500 nM.
